Numbers after ± are expanded uncertainties.
Tests used:
[1] = 92 kPa, Liquid; for mass density: Vibrating tube method
[2] = xn = mol fraction of the nth substance listed; settings: 92 kPa, Liquid, x2 = 0; for mass density: Vibrating tube method

viscosity ([1]; 313.15 K) | mass density ([1]; 313.15 K) | viscosity ([1]; 323.15 K) | mass density ([1]; 323.15 K) | viscosity ([1]; 333.15 K) | mass density ([1]; 333.15 K) | viscosity ([1]; 343.15 K) | mass density ([1]; 343.15 K) | viscosity ([1]; 298.15 K) | viscosity ([1]; 303.15 K) | viscosity ([2]; 298.15 K) | viscosity ([2]; 303.15 K) | viscosity ([2]; 313.15 K) | mass density ([2]; 323.15 K) | viscosity ([2]; 323.15 K) | mass density ([2]; 333.15 K) | viscosity ([2]; 333.15 K) | mass density ([2]; 343.15 K) | viscosity ([2]; 343.15 K) | SMILES
47.8 ± 3.2 mPa·s | 919.65 ± 1.4 kg/m3 | 25.1 ± 1.7 mPa·s | 911.24 ± 1.4 kg/m3 | 14.4 ± 1 mPa·s | 902.87 ± 1.4 kg/m3 | 8.91 ± 0.69 mPa·s | 894.28 ± 1.4 kg/m3 |  |  |  |  |  |  |  |  |  |  |  | CC(C)(N)CO [2-amino-2-methylpropan-1-ol]
0.653 ± 0.069 mPa·s |  | 0.547 ± 0.06 mPa·s | 988.04 ± 0.06 kg/m3 | 0.466 ± 0.053 mPa·s | 983.12 ± 0.06 kg/m3 | 0.405 ± 0.047 mPa·s | 977.77 ± 0.06 kg/m3 | 0.89 ± 0.089 mPa·s | 0.805 ± 0.082 mPa·s |  |  |  |  |  |  |  |  |  | O [water]
 |  |  |  |  |  |  |  |  |  | 0.89 ± 0.089 mPa·s | 0.805 ± 0.082 mPa·s | 0.653 ± 0.069 mPa·s | 988.04 ± 0.06 kg/m3 | 0.547 ± 0.06 mPa·s | 983.12 ± 0.06 kg/m3 | 0.466 ± 0.053 mPa·s | 977.77 ± 0.06 kg/m3 | 0.405 ± 0.047 mPa·s | O [water] + CC(C)(N)CO
